Molecules are shown by their SMILES.

T1 sequence (P13569 with tags, fused parts or gaps DEL508-508): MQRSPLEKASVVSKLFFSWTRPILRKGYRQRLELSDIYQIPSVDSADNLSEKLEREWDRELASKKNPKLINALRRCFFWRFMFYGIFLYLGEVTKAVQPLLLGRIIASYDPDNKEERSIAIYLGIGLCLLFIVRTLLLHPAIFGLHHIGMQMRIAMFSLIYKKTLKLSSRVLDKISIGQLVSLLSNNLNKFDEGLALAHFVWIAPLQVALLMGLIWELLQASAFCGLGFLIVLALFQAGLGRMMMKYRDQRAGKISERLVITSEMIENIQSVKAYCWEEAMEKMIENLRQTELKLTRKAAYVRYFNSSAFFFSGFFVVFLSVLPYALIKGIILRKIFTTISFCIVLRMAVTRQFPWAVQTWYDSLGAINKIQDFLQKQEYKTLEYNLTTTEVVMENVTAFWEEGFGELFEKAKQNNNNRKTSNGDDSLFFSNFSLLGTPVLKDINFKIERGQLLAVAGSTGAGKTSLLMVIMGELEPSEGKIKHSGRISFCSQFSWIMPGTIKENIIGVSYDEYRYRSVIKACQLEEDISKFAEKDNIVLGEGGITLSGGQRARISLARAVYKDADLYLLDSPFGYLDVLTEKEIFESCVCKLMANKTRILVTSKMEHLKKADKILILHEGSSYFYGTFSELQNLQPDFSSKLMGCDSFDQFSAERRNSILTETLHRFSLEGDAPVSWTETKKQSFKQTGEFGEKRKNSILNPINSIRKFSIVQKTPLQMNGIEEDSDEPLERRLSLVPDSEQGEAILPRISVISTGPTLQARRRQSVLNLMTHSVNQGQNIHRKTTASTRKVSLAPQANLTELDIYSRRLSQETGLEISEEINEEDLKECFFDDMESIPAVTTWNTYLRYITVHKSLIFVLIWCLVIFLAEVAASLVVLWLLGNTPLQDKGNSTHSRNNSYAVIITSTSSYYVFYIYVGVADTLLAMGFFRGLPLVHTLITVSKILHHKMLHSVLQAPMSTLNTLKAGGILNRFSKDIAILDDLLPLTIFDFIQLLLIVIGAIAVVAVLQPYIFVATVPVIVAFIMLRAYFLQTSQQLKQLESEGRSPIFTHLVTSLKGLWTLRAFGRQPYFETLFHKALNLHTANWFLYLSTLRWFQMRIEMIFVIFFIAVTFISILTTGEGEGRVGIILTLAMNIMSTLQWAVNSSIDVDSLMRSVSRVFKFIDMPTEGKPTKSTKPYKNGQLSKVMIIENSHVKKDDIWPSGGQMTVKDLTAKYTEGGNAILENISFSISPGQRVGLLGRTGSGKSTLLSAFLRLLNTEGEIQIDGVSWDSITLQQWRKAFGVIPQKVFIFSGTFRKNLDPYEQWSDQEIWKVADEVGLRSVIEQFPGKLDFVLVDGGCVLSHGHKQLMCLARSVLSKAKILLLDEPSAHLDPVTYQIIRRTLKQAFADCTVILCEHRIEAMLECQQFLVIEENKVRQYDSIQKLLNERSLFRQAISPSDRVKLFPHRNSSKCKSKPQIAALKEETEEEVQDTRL

One test addresses T1, F508del (Homo sapiens, UniProt P13569, DEL508-508).
T1 construct: expressed in transfected cells
The experiment in a line: Protocol 2: FRET membrane potential optical assay (VIPR), identification of correction compounds. Type of test: cell-based. The note with it: F508del CFTR modulator activity; compounds of Table 1. In short, it runs like this: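 NIH3T3 mouse fibroblasts stably expressing F508del-CFTR incubated with compound 16 h at 37 °C in serum-free medium, then loaded with CC2-DMPE/DiSBAC2(3) FRET dyes. Channel activated with 10 μM forskolin plus 20 μM genistein in Cl⁻-free (gluconate) bath; depolarisation from Cl⁻ efflux read on VIPR II.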
For the molecule `CC(C)COc1cc(F)cc(-c2ccc(C(=O)NS(=O)(=O)c3cccc(N)n3)c(N3CCC(C)C(C)C3)n2)c1` (single isomer, unassigned) [Compound 2532, N-[(6-amino-2-pyridyl)sulfonyl]-2-(3,4-dimethyl-1-piperidyl)-6-(3-fluoro-5-isobutoxy-phenyl)pyridine-3-carboxamide], the EC30 result is listed as “+++ (“+++” means <3 uM)”.

Still in this test, the particulars now being: F508del CFTR modulator activity; compounds of Table 1; read-out: EC30.
Turning to `COCCCNc1cccc(S(=O)(=O)NC(=O)c2cccnc2N2CC(C)CC2(C)C)n1` (stereo not shown) [Compound 2135, N—[[6-(3-methoxypropylamino)-2-pyridyl]sulfonyl]-2-(2,2,4-trimethylpyrrolidin-1-yl)pyridine-3-carboxamide], the EC30 fell in the range of 3000 to 10000 nM.

With `C[C@@H]1CN(c2nc(-c3cccc(F)c3O)ccc2C(=O)NS(=O)(=O)c2cccc(N)n2)C(C)(C)C1` [Compound 2386, N-[(6-amino-2-pyridyl)sulfonyl]-6-(3-fluoro-2-hydroxy-phenyl)-2-[(4S)-2,2,4-trimethylpyrrolidin-1-yl]pyridine-3-carboxamide], the EC30 is less than 3000 nM. The same measure, in the same setting: for `Cc1ccc(-c2ccc(C(=O)NS(=O)(=O)c3cccc(N)n3)c(N3CC(C)CC3(C)C)n2)nc1NCC(C)C` (stereo not shown) [Compound 2362, N-[(6-amino-2-pyridyl)sulfonyl]-6-[6-(isobutylamino)-5-methyl-2-pyridyl]-2-(2,2,4-trimethylpyrrolidin-1-yl)pyridine-3-carboxamide] the value was less than 3000 nM; for `COc1cc(-c2ccc(C(=O)NS(=O)(=O)c3cccnc3N)c(N3C[C@@H](C)CC3(C)C)n2)ccn1` [Compound 2646, N-[(2-amino-3-pyridyl)sulfonyl]-6-(2-methoxy-4-pyridyl)-2-[(4S)-2,2,4-trimethylpyrrolidin-1-yl]pyridine-3-carboxamide], less than 3000 nM.

Consider `COc1cc(-c2ccc(C(=O)NS(=O)(=O)c3cccnc3N)c(N3C[C@@H](C)CC3(C)C)n2)ccc1C` [Compound 2379, N-[(2-amino-3-pyridyl)sulfonyl]-6-(3-methoxy-4-methyl-phenyl)-2-[(4S)-2,2,4-trimethylpyrrolidin-1-yl]pyridine-3-carboxamide], for which the concentration for an effect of 30% (EC30) was less than 3000 nM. Still for that read-out and setting: for `C[C@@H]1CN(c2nc(-c3ccccc3C(F)(F)F)ccc2C(=O)NS(=O)(=O)c2cccnc2N)C(C)(C)C1` [Compound 2040, N-[(2-amino-3-pyridyl)sulfonyl]-6-[2-(trifluoromethyl)phenyl]-2-[(4S)-2,2,4-trimethylpyrrolidin-1-yl]pyridine-3-carboxamide] the value was less than 3000 nM; for `C[C@@H]1CN(c2nc(-c3ccc(F)c(F)c3)ccc2C(=O)NS(=O)(=O)c2cccc(N)n2)C(C)(C)C1` [Compound 2559, N-[(6-amino-2-pyridyl)sulfonyl]-6-(3,4-difluorophenyl)-2-[(4S)-2,2,4-trimethylpyrrolidin-1-yl]pyridine-3-carboxamide], less than 3000 nM. As for `CC1CN(c2ncccc2C(=O)NS(=O)(=O)c2cccc(Nc3ccccc3)n2)C(C)(C)C1` (stereo not shown) [Compound 2639, N-[(6-anilino-2-pyridyl)sulfonyl]-2-(2,2,4-trimethylpyrrolidin-1-yl)pyridine-3-carboxamide], the EC30 is less than 3000 nM. Still for that read-out and setting: to `CCCC(C)Nc1cccc(S(=O)(=O)NC(=O)c2cccnc2N2CC(C)CC2(C)C)n1` (stereo not shown) [Compound 2197, N—[[6-(1-methylbutylamino)-2-pyridyl]sulfonyl]-2-(2,2,4-trimethylpyrrolidin-1-yl)pyridine-3-carboxamide] belongs less than 3000 nM; to `CC1CN(c2ncccc2C(=O)NS(=O)(=O)c2cccc(NC3CCCCC3)n2)C(C)(C)C1` (stereo not shown) [Compound 2250, N—[[6-(cyclohexylamino)-2-pyridyl]sulfonyl]-2-(2,2,4-trimethylpyrrolidin-1-yl)pyridine-3-carboxamide], less than 3000 nM; to `CC1CN(c2ncccc2C(=O)NS(=O)(=O)c2cccc(N[C@H]3CC[C@H](NC(=O)OC(C)(C)C)CC3)n2)C(C)(C)C1` (stereo partly shown) [Compound 2439, tert-butyl N—[4-[[6-[[2-(2,2,4-trimethylpyrrolidin-1-yl)pyridine-3-carbonyl]sulfamoyl]-2-pyridyl]amino]cyclohexyl]carbamate], less than 3000 nM.

In the case of `CC(C)COc1cc(F)cc(-c2nc(N3C[C@@H](C)CC3(C)C)c(C(=O)NS(=O)(=O)c3cccc(N)n3)cc2I)c1` [Compound 2009, N-[(6-amino-2-pyridyl)sulfonyl]-6-(3-fluoro-5-isobutoxy-phenyl)-5-iodo-2-[(4S)-2,2,4-trimethylpyrrolidin-1-yl]pyridine-3-carboxamide], the EC30 was less than 3000 nM. On the same count and under the same terms, for `CC1CN(c2ncccc2C(=O)NS(=O)(=O)c2cccc(Oc3cccc(C(C)C)c3)n2)C(C)(C)C1` (stereo not shown) [Compound 2108, N—[[6-(3-isopropylphenoxy)-2-pyridyl]sulfonyl]-2-(2,2,4-trimethylpyrrolidin-1-yl)pyridine-3-carboxamide] the value was less than 3000 nM.

Staying with this test, now noted: Table 3; compounds of Table 1 as modulators of CFTR activity; protocol not stated.
As to `CC(C)COc1ccc(-c2ccc(C(=O)NS(=O)(=O)c3cccc(N)n3)c(N3[C@H](C)CC[C@@H]3C)n2)cn1` [Compound 544, N-[(6-amino-2-pyridyl)sulfonyl]-2-[(2S,5R)-2,5-dimethylpyrrolidin-1-yl]-6-(6-isobutoxy-3-pyridyl)pyridine-3-carboxamide], the EC30 entry was “+++ (“+++” means <3 uM)”. Still for that read-out and setting: for `CC(C)Oc1ccc(-c2ccc(C(=O)NS(=O)(=O)c3cccc(N)n3)c(N3CCC(c4ccccc4)CC3)n2)cn1` [Compound 742, N-[(6-amino-2-pyridyl)sulfonyl]-6-(6-isopropoxy-3-pyridyl)-2-(4-phenyl-1-piperidyl)pyridine-3-carboxamide] the value was “+++ (“+++” means <3 uM)”; for `CC(C)COc1cc(F)cc(-c2ccc(C(=O)NS(=O)(=O)c3ccn[nH]3)c(N3CCCCC3)n2)c1` [Compound 355, 6-(3-fluoro-5-isobutoxy-phenyl)-2-(1-piperidyl)-N-(1H-pyrazol-5-ylsulfonyl)pyridine-3-carboxamide], “+++ (“+++” means <3 uM)”. In the case of `COC1CCCN(c2nc(-c3cc(F)cc(OCC(C)C)c3)ccc2C(=O)NS(=O)(=O)c2ccn[nH]2)C1` (stereo not shown) [Compound 749, 6-(3-fluoro-5-isobutoxy-phenyl)-2-(3-methoxy-1-piperidyl)-N-(1H-pyrazol-5-ylsulfonyl)pyridine-3-carboxamide], the EC30 entry is listed as “+++ (“+++” means <3 uM)”. Same read-out and setting: for `CC(c1ccccc1)n1c(C(=O)NS(=O)(=O)c2ccccc2)cc2c(F)cccc21` (stereo not shown) [Compound 160, N-(benzenesulfonyl)-4-fluoro-1-(1-phenylethyl)indole-2-carboxamide] the value was “+++ (“+++” means <3 uM)”; for `Cc1ccnc(C)c1Oc1nc(C(C)(C)C)ccc1C(=O)NS(=O)(=O)c1cccc(N)n1` [Compound 460, N-[(6-amino-2-pyridyl)sulfonyl]-6-tert-butyl-2-[(2,4-dimethyl-3-pyridyl)oxy]pyridine-3-carboxamide], “++ (“++” means between 3 uM and 10 uM)”; for `CC(C)(C)c1ccc(C(=O)NS(=O)(=O)c2cccc(N)c2)c(-c2ccc(F)cc2)n1` [Compound 46, N-(3-aminophenyl)sulfonyl-6-tert-butyl-2-(4-fluorophenyl)pyridine-3-carboxamide], “++ (“++” means between 3 uM and 10 uM)”. Still for that read-out and setting: for `Cc1cc(C)c(Cn2nc(C3(C)CC3)cc2C(=O)NS(=O)(=O)c2cccc(N)c2)c(C)c1` [Compound 158, N-(3-aminophenyl)sulfonyl-5-(1-methylcyclopropyl)-2-[(2,4,6-trimethylphenyl)methyl]pyrazole-3-carboxamide] the value was “+++ (“+++” means <3 uM)”.

For the origin of these results see US10758534B2 (Vertex Pharmaceuticals Incorporated, priority 2014, dated 2020).
